The values below come from patent US20240116985A1, “STAPLED PEPTIDES AND METHODS THEREOF” (priority 2020, published 2024).

In assay [1] the target is T1, full-length beta-Catenin (Uniprot ID P35222) (Homo sapiens, UniProt P35222).
T1 construct: 10 nM full-length beta-Catenin (Uniprot ID P35222)
T1 sequence (P35222 1-781): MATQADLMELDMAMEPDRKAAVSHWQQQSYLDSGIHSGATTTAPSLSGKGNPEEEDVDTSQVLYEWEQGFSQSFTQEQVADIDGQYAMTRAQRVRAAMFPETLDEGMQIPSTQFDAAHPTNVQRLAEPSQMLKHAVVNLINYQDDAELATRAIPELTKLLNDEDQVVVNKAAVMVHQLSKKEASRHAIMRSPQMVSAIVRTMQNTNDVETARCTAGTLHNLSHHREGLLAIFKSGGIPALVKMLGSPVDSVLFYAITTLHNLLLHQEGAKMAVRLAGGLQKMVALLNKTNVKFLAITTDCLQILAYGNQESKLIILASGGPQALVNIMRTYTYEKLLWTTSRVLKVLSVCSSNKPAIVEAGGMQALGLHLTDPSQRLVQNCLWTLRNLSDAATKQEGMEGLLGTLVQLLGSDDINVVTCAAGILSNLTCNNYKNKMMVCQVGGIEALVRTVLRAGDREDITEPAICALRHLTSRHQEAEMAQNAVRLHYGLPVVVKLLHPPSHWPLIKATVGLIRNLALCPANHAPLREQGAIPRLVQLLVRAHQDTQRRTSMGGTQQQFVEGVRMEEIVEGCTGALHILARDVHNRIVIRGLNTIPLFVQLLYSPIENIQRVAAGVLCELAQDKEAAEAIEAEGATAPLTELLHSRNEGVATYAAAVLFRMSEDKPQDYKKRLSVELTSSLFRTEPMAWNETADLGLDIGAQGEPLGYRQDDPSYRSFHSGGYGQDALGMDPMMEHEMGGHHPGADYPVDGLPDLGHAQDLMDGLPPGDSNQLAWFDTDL
Kind of assay: Fluorescence polarization IC50 (beta-catenin / 5FAM-TCF4 10-53 competition). Type of assay: binding. Conditions: fluorescence polarization; read-out: beta-Catenin FP IC50. On the technique in general: Fluorescence polarisation rises when a labelled molecule tumbles more slowly, as on binding a larger partner.

The target in assay [2] is T2, beta-catenin/TCF4 engagement (Homo sapiens, UniProt P35222).
T2 construct: expressed in transfected cells; host or cells: HEK293
T2 sequence (P35222 1-781): T1 sequence (P35222 1-781)
Kind of assay: Nano-BRET target engagement assay (B-cat-Halo & TCF4-Luc in HEK293 cells). The class given is cell-based. The settings on record: read-out: NanoBRET Abs IC50. (In general: Bioluminescence resonance energy transfer reports proximity on the nanometre scale.)

Each structure is given as a SMILES string. Read-outs that look alike come from different tables or passages of the source.

With `CC(=O)N1CCC[C@]12CC=CCCCC1(CCCC=CCCCOC(=O)N3CC[C@@](C(=O)N[C@@H](Cc4ccsc4)C(=O)N[C@@H](Cc4csc5ccccc45)C(=O)N[C@@H](CCC(N)=O)C(N)=O)(C3)NC(=O)[C@H](CC(C)C)NC(=O)[C@H](Cc3ccccc3)NC(=O)[C@H](C)NC(=O)[C@H](C)NC(=O)[C@H](CCN(CC(=O)O)Cc3ccccc3)NC(=O)[C@H](CC(=O)O)NC1=O)NC(=O)[C@H](CC(C)(C)C)NC(=O)[C@H](CC(=O)O)NC2=O` (stereo partly drawn) [I-1834, Ac-PL3-Asp-Npg-B5-Asp-[Bn]GAbu-Ala-Ala-Phe-Leu-PyrS2-3Thi-BztA-Gln-NH2], the IC50 in assay [1] came out at 0.035 µM; in assay [2] (absolute IC50), 18.8 µM.
For `CCN(CC[C@@H]1NC(=O)[C@H](CC(=O)O)NC(=O)C2(CCCC=CCCCOC(=O)N3CC[C@@](C(=O)N[C@@H](Cc4ccsc4)C(=O)N[C@@H](Cc4csc5ccccc45)C(=O)N[C@@H](CCC(N)=O)C(N)=O)(C3)NC(=O)[C@H](CC(C)C)NC(=O)[C@H](Cc3ccccc3)NC(=O)[C@H](C)NC(=O)[C@H](C)NC1=O)CCCC=CC[C@]1(CCCN1C(C)=O)C(=O)N[C@@H](CC(=O)O)C(=O)N[C@@H](CC(C)(C)C)C(=O)N2)CC(=O)O` (stereo partly drawn) [I-1835, Ac-PL3-Asp-Npg-B5-Asp-[Et]GAbu-Ala-Ala-Phe-Leu-PyrS2-3Thi-BztA-Gln-NH2] the same measures were 0.034 µM and 31.9 µM.
On to `CC(=O)N1CCC[C@]12CC=CCCCC1(CCCC=CCCCOC(=O)N3CC[C@@](C(=O)N[C@@H](Cc4ccsc4)C(=O)N[C@@H](Cc4csc5ccccc45)C(=O)N[C@@H](CCC(N)=O)C(N)=O)(C3)NC(=O)[C@H](CC(C)C)NC(=O)[C@H](Cc3ccccc3)NC(=O)[C@H](C)NC(=O)[C@H](C)NC(=O)[C@H](CCN(CCCC(F)(F)F)CC(=O)O)NC(=O)[C@H](CC(=O)O)NC1=O)NC(=O)[C@H](CC(C)(C)C)NC(=O)[C@H](CC(=O)O)NC2=O` (stereo partly drawn) [I-1837, Ac-PL3-Asp-Npg-B5-Asp-[Tfb]GAbu-Ala-Ala-Phe-Leu-PyrS2-3Thi-BztA-Gln-NH2], for which the 50% inhibitory concentration (IC50) was determined as 0.019 µM in assay [1] and 18.5 µM in assay [2] (absolute IC50).
For `CC(=O)N1CCC[C@]12CC=CCCCC1(CCCC=CCCCOC(=O)N3CC[C@@](C(=O)N[C@@H](Cc4ccsc4)C(=O)N[C@@H](Cc4csc5ccccc45)C(=O)N[C@@H](CCC(N)=O)C(N)=O)(C3)NC(=O)[C@H](CC(C)C)NC(=O)[C@H](Cc3ccccc3)NC(=O)[C@H](C)NC(=O)[C@H](C)NC(=O)[C@H](CCN(CC(=O)O)Cc3c(F)c(F)c(F)c(F)c3F)NC(=O)[C@H](CC(=O)O)NC1=O)NC(=O)[C@H](CC(C)(C)C)NC(=O)[C@H](CC(=O)O)NC2=O` (stereo partly drawn) [I-1838, Ac-PL3-Asp-Npg-B5-Asp-[Pfbn]GAbu-Ala-Ala-Phe-Leu-PyrS2-3Thi-BztA-Gln-NH2], in that order: 0.085 µM and 7.9 µM.
For the molecule `CC(=O)N1CCC[C@]12CC=CCCCC1(CCCC=CCCCOC(=O)N3CC[C@@](C(=O)N[C@@H](Cc4ccsc4)C(=O)N[C@@H](Cc4csc5ccccc45)C(=O)N[C@@H](CCC(N)=O)C(N)=O)(C3)NC(=O)[C@H](CC(C)C)NC(=O)[C@H](Cc3ccccc3)NC(=O)[C@H](C)NC(=O)[C@H](C)NC(=O)[C@H](CCN(CCC(F)(F)F)CC(=O)O)NC(=O)[C@H](CC(=O)O)NC1=O)NC(=O)[C@H](CC(C)(C)C)NC(=O)[C@H](CC(=O)O)NC2=O` (stereo partly drawn) [I-1839, Ac-PL3-Asp-Npg-B5-Asp-[Tfp]GAbu-Ala-Ala-Phe-Leu-PyrS2-3Thi-BztA-Gln-NH2], the figures for the IC50 in assay [1] and in assay [2] (absolute IC50) were 0.021 µM and 14.6 µM, respectively.
For `CC(=O)N(CC[C@@H]1NC(=O)[C@H](CC(=O)O)NC(=O)C2(CCCC=CCCCOC(=O)N3CC[C@@](C(=O)N[C@@H](Cc4ccsc4)C(=O)N[C@@H](Cc4csc5ccccc45)C(=O)N[C@@H](CCC(N)=O)C(N)=O)(C3)NC(=O)[C@H](CC(C)C)NC(=O)[C@H](Cc3ccccc3)NC(=O)[C@H](C)NC(=O)[C@H](C)NC1=O)CCCC=CC[C@]1(CCCN1C(C)=O)C(=O)N[C@@H](CC(=O)O)C(=O)N[C@@H](CC(C)(C)C)C(=O)N2)CC(=O)O` (stereo partly drawn) [I-1840, Ac-PL3-Asp-Npg-B5-Asp-[Ac]GAbu-Ala-Ala-Phe-Leu-PyrS2-3Thi-BztA-Gln-NH2] the same measures were 0.014 µM and 22.3 µM.
On to `CC(=O)N1CCC[C@]12CC=CCCCC1(CCCC=CCCCOC(=O)N3CC[C@@](C(=O)N[C@@H](Cc4ccsc4)C(=O)N[C@@H](Cc4csc5ccccc45)C(=O)N[C@@H](CCC(N)=O)C(N)=O)(C3)NC(=O)[C@H](CC(C)C)NC(=O)[C@H](Cc3ccccc3)NC(=O)[C@H](C)NC(=O)[C@H](C)NC(=O)[C@H](CCNCC(=O)O)NC(=O)[C@H](CC(=O)O)NC1=O)NC(=O)[C@H](CC(C)(C)C)NC(=O)[C@H](CC(=O)O)NC2=O` (stereo partly drawn) [I-1841, Ac-PL3-Asp-Npg-B5-Asp-GAbu-Ala-Ala-Phe-Leu-PyrS2-3Thi-BztA-Gln-NH2], for which the 50% inhibitory concentration (IC50) in assay [1] was 0.076 µM; in assay [2] (absolute IC50) it was above 20 µM.
Take `CC(=O)N1CCC[C@]12CC=CCCCC1(CCCC=CCCCOC(=O)N3CC[C@@](C(=O)N[C@@H](Cc4ccsc4)C(=O)N[C@@H](Cc4csc5ccccc45)C(=O)N[C@@H](CCC(N)=O)C(N)=O)(C3)NC(=O)[C@H](CC(C)C)NC(=O)[C@H](Cc3ccccc3)NC(=O)[C@H](C)NC(=O)[C@H](C)NC(=O)[C@H](CNc3ccc([N+](=O)[O-])cc3C(=O)O)NC(=O)[C@H](CC(=O)O)NC1=O)NC(=O)[C@H](CC(C)(C)C)NC(=O)[C@H](CC(=O)O)NC2=O` (stereo partly drawn) [I-1843, Ac-PL3-Asp-Npg-B5-Asp-[2COOH4NO2Ph]Dap-Ala-Ala-Phe-Leu-PyrS2-3Thi-BztA-Gln-NH2]: the IC50 in assay [1] stood at 0.032 µM; in assay [2] (absolute IC50) it was 9.5 µM.
Consider `CC(=O)N1CCC[C@]12CC=CCCCC1(CCCC=CCCCOC(=O)N3CC[C@@](C(=O)N[C@@H](Cc4ccsc4)C(=O)N[C@@H](Cc4csc5ccccc45)C(=O)N[C@@H](CCC(N)=O)C(N)=O)(C3)NC(=O)[C@H](CC(C)C)NC(=O)[C@H](Cc3ccccc3)NC(=O)[C@H](C)NC(=O)[C@H](C)NC(=O)[C@H](CNc3ncccc3C(=O)O)NC(=O)[C@H](CC(=O)O)NC1=O)NC(=O)[C@H](CC(C)(C)C)NC(=O)[C@H](CC(=O)O)NC2=O` (stereo partly drawn) [I-1845, Ac-PL3-Asp-Npg-B5-Asp-[2Nic]Dap-Ala-Ala-Phe-Leu-PyrS2-3Thi-BztA-Gln-NH2], for which the half-maximal inhibitory concentration (IC50) was determined as 0.03 µM in assay [1] and 6.3 µM in assay [2] (absolute IC50).
For `CC(=O)N1CC2CC1C(=O)N[C@@H](CC(=O)O)C(=O)N[C@@H](CC(C)(C)C)C(=O)NC1(CCCC=CCCCOC(=O)N3CC[C@@](C(=O)N[C@@H](Cc4ccccc4Cl)C(=O)N[C@@H](Cc4csc5ccccc45)C(=O)N[C@@H](CCC(N)=O)C(N)=O)(C3)NC(=O)[C@H]([C@@H](C)O)NC(=O)[C@H](Cc3ccccc3)NC(=O)[C@H](C)NC(=O)[C@H](C)NC(=O)[C@H](CN(CC(=O)O)CC(F)(F)F)NC(=O)[C@H](CC(=O)O)NC1=O)CCCC=CCCC(=O)O2` (stereo partly drawn) [I-1846, Ac-HyPEs5-Asp-Npg-B5-Asp-TfeGA-Ala-Ala-Phe-Thr-PyrS2-2C1F-BztA-Gln-NH2] the same measures were 0.038 µM and 29.8 µM.
In the case of `CC(=O)N1CCC[C@]12CC=CCCCC1(CCCC=CCCCOC(=O)N3CC[C@@](C(=O)N[C@@H](Cc4ccccc4Cl)C(=O)N[C@@H](Cc4csc5ccccc45)C(=O)N[C@@H](CO)C(N)=O)(C3)NC(=O)[C@H](C)NC(=O)[C@H](Cc3ccccc3)NC(=O)[C@H](C)NC(=O)[C@H](C)NC(=O)[C@H](Cc3cccc(C(=O)O)c3)NC(=O)[C@H](CC(=O)O)NC1=O)NC(=O)[C@H](CC(C)(C)C)NC(=O)[C@H](CC(=O)O)NC2=O` (stereo partly drawn) [I-1849, Ac-PL3-Asp-Npg-B5-Asp-3COOHF-Ala-Ala-Phe-Ala-PyrS2-2C1F-BztA-Ser-NH2], the 50% inhibitory concentration (IC50) in assay [1] stood at 0.019 µM; in assay [2] it was 8.8 µM.
For `CC(=O)N1CCC[C@]12CC=CCCCC1(CCCC=CCCCOC(=O)N3CC[C@@](C(=O)N[C@@H](Cc4ccccc4Cl)C(=O)N[C@@H](Cc4csc5ccccc45)C(=O)N[C@@H](CO)C(N)=O)(C3)NC(=O)[C@H](C(C)C)NC(=O)[C@H](Cc3ccccc3)NC(=O)[C@H](C)NC(=O)[C@H](C)NC(=O)[C@H](Cc3cccc(C(=O)O)c3)NC(=O)[C@H](CC(=O)O)NC1=O)NC(=O)[C@H](CC(C)(C)C)NC(=O)[C@H](CC(=O)O)NC2=O` (stereo partly drawn) [I-1850, Ac-PL3-Asp-Npg-B5-Asp-3COOHF-Ala-Ala-Phe-Val-PyrS2-2C1F-BztA-Ser-NH2] the same measures were 0.017 µM and 3.8 µM.
Regarding `CC(=O)N1CCC[C@]12CC=CCCCC1(CCCC=CCCCOC(=O)N3CC[C@@](C(=O)N[C@@H](Cc4ccccc4Cl)C(=O)N[C@@H](Cc4csc5ccccc45)C(=O)N[C@@H](C)C(N)=O)(C3)NC(=O)[C@H](CC(C)C)NC(=O)[C@H](Cc3ccccc3)NC(=O)[C@H](C)NC(=O)[C@H](C)NC(=O)[C@H](Cc3cccc(C(=O)O)c3)NC(=O)[C@H](CC(=O)O)NC1=O)NC(=O)[C@H](CC(C)(C)C)NC(=O)[C@H](CC(=O)O)NC2=O` (stereo partly drawn) [I-1851, Ac-PL3-Asp-Npg-B5-Asp-3COOHF-Ala-Ala-Phe-Leu-PyrS2-2C1F-BztA-Ala-NH2], the values for the IC50 in assay [1] and in assay [2] were 0.025 µM and 3.8 µM, respectively.

As a reminder, the IC50 is the midpoint of a concentration-inhibition curve.
